Measurements as given in US6582713B2, “Compositions and methods for promoting wound healing” (Univ. of Colorado - Colorado Springs, priority 2000, dated 2003).
Values joined by “and” are separate entries in the source; they are usually repeats but may differ in a detail not shown here. Equal values may be shown once. Marks after values point to notes of the source that are not given here.

Key:
[1] = test system: unsealed wound; experiment: Effect of three day insulin treatment on unsealed wound in vivo; parameters: species or system mice; conditions: 100 micro liters applied to unsealed incision, photographs daily for one week
Excerpt: Six mice were anesthetized with avetin Q 15-18 micro liters per gram body weight. An area on the back of the neck was swabbed with alcohol and shaved. A single vertical incision was made with scissors. One hundred micro liters of insulin was applied to three mice and 100 micro liters of water was applied to the other three. Photographs of the wounds were taken on a daily basis for one week.

[2] = Blood glucose level after treatment injected into incision sealed with cyanoacrylate; assay type: in vivo, mice; conditions: for Blood Glucose Level: individual mice
Experimental: Twelve mice were used in the study. Each mouses' blood glucose level was tested at the start of the study. The mice were then weighted and anesthetized. The back of the neck was shaved and a single incision was made. The incision was then sealed with cyanoacrylate polymer which was applied and allowed to set for 1½ minutes. The treatment (glucose, water, insulin, or insulin plus glucose) as described above were injected into the incision. […] On day 1, blood glucose was again measured and the wound was photographed. This was repeated on days 3, 5, and 7. Mouse numbers 1, 2, and 3 received glucose treatment. Mouse numbers 4, 5, and 6 received water (control). Mouse numbers 7, 8, and 9 received insulin plus glucose. Mouse numbers 10, 11, and 12 received insulin.

Question: What does the source list for insulin?
Answer: wound healing compared with water [1]: More complete wound healing; Blood Glucose Level ([2]; 0 Hr (start of study, before treatment)): 89 mg/dL and 104 mg/dL and 118 mg/dL; Blood Glucose Level ([2]; 0.5 Hr, incision sealed with cyanoacrylate): 58 mg/dL and 36 mg/dL and 46 mg/dL; Blood Glucose Level ([2]; 3.0 Hr., incision sealed with cyanoacrylate): <25 mg/dL; Blood Glucose Level ([2]; 21 Hr., incision sealed with cyanoacrylate): <25 mg/dL (2×) and 113 mg/dL; Blood Glucose Level ([2]; 69 Hr., incision sealed with cyanoacrylate): <25* mg/dL and 109 mg/dL; death of mouse ([2]; by 69 Hr., individual mouse): Died; effect on levels of blood glucose compared with control water treatment ([2]; summary of Table 1): dramatic effects
